# Source: PMC7522027 (Disease Models & Mechanisms, 2020)
# Several values for one entry are separate records, joined by “and”; a condition that tells them apart may be missing. Equal entries are not always repeated.
# What was measured:
# zebrafish embryos [1] = test: zebrafish embryo assay (morphological developmental defects at 48 hpf); assay type: in vivo, zebrafish (Danio rerio); details: for developmental defects in zebrafish embryos: broad concentration range; for effect on zebrafish embryo development: 20 µM (maximum tested concentration)
# Experimental: Zebrafish eggs obtained from family crosses of Tuebingen long fin zebrafish lines were used to assess the biological activity of all samples. The eggs were washed with fresh E3 medium and subsequently divided over 24-well plates, with ten embryos per well in 1000 µl E3 medium. Samples were added to the wells at various times as mentioned in the figures and legends. At 48 hpf, the zebrafish embryos were inspected for morphological developmental defects. Embryos displaying morphological defects were imaged using a Leica MZFLIII microscope equipped with a Leica DFC320 camera or Leica M165 FC microscope equipped with a Leica DMC5400 camera.
# caALK2 = biological target: T1, caALK2 (Homo sapiens, UniProt Q04771, Q207D); test: caALK2-induced SMAD1/5 phosphorylation in HEK 293T cells; assay type: cell-based; details: cercosporamide 1-10 µM, LDN193189 200 nM
# T1 construct: expressed in transfected cells; host or cells: HEK 293T
# T1 sequence (Q04771 21-509 Q207D): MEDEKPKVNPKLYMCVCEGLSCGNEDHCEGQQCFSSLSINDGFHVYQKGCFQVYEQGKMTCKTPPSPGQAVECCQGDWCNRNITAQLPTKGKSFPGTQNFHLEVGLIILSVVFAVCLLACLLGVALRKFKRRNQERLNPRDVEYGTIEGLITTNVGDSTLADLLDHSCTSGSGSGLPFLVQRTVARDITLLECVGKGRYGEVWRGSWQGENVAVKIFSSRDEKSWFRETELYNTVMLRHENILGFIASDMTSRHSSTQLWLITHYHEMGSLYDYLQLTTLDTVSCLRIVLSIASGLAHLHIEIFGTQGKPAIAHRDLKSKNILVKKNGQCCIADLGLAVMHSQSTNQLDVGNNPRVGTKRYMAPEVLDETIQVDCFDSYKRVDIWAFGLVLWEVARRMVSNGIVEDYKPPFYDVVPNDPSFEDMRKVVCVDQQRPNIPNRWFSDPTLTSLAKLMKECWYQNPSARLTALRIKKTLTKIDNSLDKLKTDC
# Source text: (§1) HepG2 or HEK 293T cells were lysed in Laemmli sample buffer. Proteins were separated by sodium dodecyl sulfate polyacrylamide gel electrophoresis (SDS-PAGE) and transferred onto […] polyvinylidene difluoride (PVDF) membrane (IPVH00010, Merck Millipore). Membranes were blocked using 5% non-fat dry milk in Tris-buffered saline with 0.1% Tween 20 (655204, Merck Millipore) and probed with the respective primary and secondary antibodies. The signal was detected using Clarity™ Western ECL Substrate (1705060, Bio-Rad) and ChemiDoc Imaging System (17001402, Bio-Rad). The antibodies used for immunoblotting were raised against the following proteins: phospho-SMAD1/5/8 ([Persson et al., 1998]; 1:1000), SMAD1 (Cell Signaling Technology, #6944; 1:1000), GAPDH (Merck Millipore, #G8795; 1:5000) and hemagglutinin (HA; Roche, #12CA5; 1:1000).
# (§2) For experiments with the caALK type I receptor constructs, HEK 293T cells were seeded in 24-well plates at ∼90% confluency and transfected with the DNA expression constructs in the presence of PEI. Thirty hours after transfection, the cells were added to serum-starved medium and treated with compounds for 16 h (overnight). Subsequently, the cells were washed with PBS and lysed in Laemmli sample buffer. […]
# caALK3 = biological target: T2, caALK3 (Homo sapiens, UniProt P36894, Q233D); test: caALK3-induced SMAD1/5 phosphorylation in HEK 293T cells; assay type: cell-based; details: cercosporamide 1-10 µM, LDN193189 200 nM
# T2 construct: expressed in transfected cells; host or cells: HEK 293T
# Source text: as §1, §2
# caALK1 = biological target: T3, caALK1 (Homo sapiens, UniProt P37023, Q201D); test: caALK1-induced SMAD1/5 phosphorylation in HEK 293T cells; assay type: cell-based; details: cercosporamide 1-10 µM, LDN193189 200 nM
# T3 construct: expressed in transfected cells; host or cells: HEK 293T
# Source text: as §1, §2
# [2] = test system: BMP2-induced SMAD1/5-dependent BRE-luc transcriptional reporter; test: BMP2-induced BRE-luc transcriptional reporter assay in HepG2 cells; assay type: cell-based, human; details: HepG2, BMP2 50 ng/ml; cercosporamide 100 nM to 10 µM, LDN-193189 200 nM
# Experimental: For luciferase transcriptional reporter assays, HepG2 cells were seeded in 9-cm plates at ∼60% confluency and transfected with polyethyleneimine (PEI). Twenty-four hours later, the transfected cells were seeded in 24-well plates at ∼60% confluency. Another 24 h later, the cells were serum starved for 6 h. Subsequently the cells were treated with compound or DMSO for 30 min. Thereafter, the cells were stimulated with BMP2 in the presence of compounds (or DMSO) for 16 h (overnight). Subsequently, the cells were washed with PBS and lysed. Luciferase activity was measured using the luciferase reporter assay system from Promega (Leiden, The Netherlands) by a Perkin Elmer luminometer Victor^3 1420. Each DNA transfection mixture was equalized with empty vector when necessary and every experiment was performed in triplicate. β-galactosidase expression construct was co-transfected and β-galactosidase was measured to normalize for differences in transfection efficiency. The BRE-luc reporter construct has been reported previously ([Korchynskyi and ten Dijke, 2002]).
# caALK6 = test: caALK6-induced SMAD1/5 phosphorylation in HEK 293T cells; assay type: cell-based, human; details: cercosporamide 1-10 µM, LDN193189 200 nM
# Source text: as §1, §2
# zebrafish embryos [3] = test: in situ hybridization with krox20/myod probes in treated zebrafish embryos; assay type: in vivo, zebrafish (Danio rerio); details: 750 nM from 6 hpf, fixed at 12 hpf
# Experimental: Embryos were treated from approximately 6 hpf until 12 hpf when they were fixed in 4% paraformaldehyde overnight. In situ hybridization was performed using krox20 and myod anti-sense RNA probes as described elsewhere ([Thisse and Thisse, 2008]).
# [4] = test system: BMP2-induced SMAD1/5 phosphorylation; test: BMP2-induced SMAD1/5 phosphorylation in HepG2 cells (immunoblot); assay type: cell-based, human; details: HepG2, BMP2 50 ng/ml, maximum tested concentration of 20 µM
# Experimental: For BMP stimulation, the HepG2 cells (∼50% confluency) were starved on serum-free medium for 6 h. Subsequently, prior to the addition of BMP ligands, the cells were treated with compound for 30 min. Next, the cells were stimulated with BMP2 (50 ng/ml) or BMP6 (50 ng/ml) for 45 min. The cells were then washed with PBS and lysed in Laemmli sample buffer for western blot analysis.
# as §1
# T2 sequence (P36894 24-532 Q233D): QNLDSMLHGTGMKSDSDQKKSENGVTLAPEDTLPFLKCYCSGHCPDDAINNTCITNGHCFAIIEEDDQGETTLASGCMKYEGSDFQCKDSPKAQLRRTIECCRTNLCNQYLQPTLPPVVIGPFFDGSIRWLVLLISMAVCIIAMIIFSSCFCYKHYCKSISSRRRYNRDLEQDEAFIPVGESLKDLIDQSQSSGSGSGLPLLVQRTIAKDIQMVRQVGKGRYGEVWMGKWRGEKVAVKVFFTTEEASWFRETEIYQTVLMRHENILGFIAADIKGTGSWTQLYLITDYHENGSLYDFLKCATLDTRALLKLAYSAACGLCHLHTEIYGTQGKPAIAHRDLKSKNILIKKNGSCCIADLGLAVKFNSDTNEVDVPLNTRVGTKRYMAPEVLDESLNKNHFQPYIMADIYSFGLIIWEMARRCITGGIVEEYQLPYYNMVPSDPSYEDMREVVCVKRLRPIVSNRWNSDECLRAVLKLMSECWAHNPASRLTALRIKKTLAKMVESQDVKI
# T3 sequence (P37023 22-503 Q201D): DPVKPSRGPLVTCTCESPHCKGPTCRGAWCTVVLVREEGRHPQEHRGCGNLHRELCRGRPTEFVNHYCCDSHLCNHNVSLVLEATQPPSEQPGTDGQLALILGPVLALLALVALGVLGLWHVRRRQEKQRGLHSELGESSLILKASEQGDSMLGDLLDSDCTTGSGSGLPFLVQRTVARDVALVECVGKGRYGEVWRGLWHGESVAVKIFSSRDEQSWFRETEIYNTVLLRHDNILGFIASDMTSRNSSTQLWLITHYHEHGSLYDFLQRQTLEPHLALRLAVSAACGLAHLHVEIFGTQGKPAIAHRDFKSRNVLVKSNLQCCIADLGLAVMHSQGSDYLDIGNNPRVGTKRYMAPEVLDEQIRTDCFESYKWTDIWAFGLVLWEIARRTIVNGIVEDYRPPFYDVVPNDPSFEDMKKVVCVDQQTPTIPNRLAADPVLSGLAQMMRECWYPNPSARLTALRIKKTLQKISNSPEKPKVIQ
smiles,measurement,setting,value
Cc1cccc(-c2nn(C(=S)Nc3ccccc3)cc2-c2ccnc3ccccc23)n1 [A83-01],developmental defects in zebrafish embryos,zebrafish embryos [1],severely curved tail and fused eyes
Cc1cccc(-c2[nH]ncc2-c2ccc3ncccc3n2)n1 [ALK5 kinase inhibitor II],developmental defects in zebrafish embryos,zebrafish embryos [1],severely curved tail and fused eyes
"c1ccc2c(-c3cnn4cc(-c5ccc(N6CCNCC6)cc5)cnc34)ccnc2c1 [LDN-193189, reference compound]",effect on caALK2-induced SMAD1/5 phosphorylation,caALK2,strongly reduced
same,effect on caALK3-induced SMAD1/5 phosphorylation,caALK3,strongly reduced
same,effect on caALK1-induced SMAD1/5 phosphorylation,caALK1,strongly reduced
same,"developmental defects, single treatment","zebrafish embryos [1]; 5 µM, from 7 hpf onwards",did not induce detectable developmental defects
same,effect on BMP2-induced BRE-luc activity,[2],potent antagonizing effect
same,effect on caALK6-induced SMAD1/5 phosphorylation,caALK6,strongly reduced
CC(C)Oc1ccc(-c2cnc3c(-c4ccnc5ccccc45)cnn3c2)cc1 [DMH-1],krox20 expression pattern,zebrafish embryos [3],induced lateral expression of krox20
same,fraction of embryos showing the pattern,zebrafish embryos [3]; one fraction per depicted pattern,9/13 and 4/13
same,lethality,"zebrafish embryos [1]; 250 nM, treatment from 2 hpf onwards",lethal
same,embryos in which treatment is lethal,"zebrafish embryos [1]; 250 nM, treatment from 4 hpf",50%
same,phenotype,zebrafish embryos [1]; 750 nM,loss of the ventral fin
same,phenotype at 48 hpf,"zebrafish embryos [1]; DMH-1 treatment at 8 hpf (250 nM, Fig. S3)",mild defects
Cc1cc(Nc2cc(N)ncn2)c(=O)n2c1C(=O)NC21CCCCC1 [eFT508],effect on SMAD1/5 phosphorylation,[4],no effect
same,effect on SMAD1/5 phosphorylation,[4]; listed as eFT 508,did not affect
same,effect on zebrafish embryo development,zebrafish embryos [1],no effect
same,effect on zebrafish embryo development,zebrafish embryos [1]; listed as eFT 508,did not induce developmental
